In ChEMBL document CHEMBL1201862, “PubChem BioAssay data set” (2004):
The source made the active and inactive calls.

Key:
[1] = general mammalian cell viability loss – inhibitor set, cherry-pick, set 2, cytotoxicity control for miR-122 modulator project, dose response (AID 720697); format: functional, cell-based
INS1 = experiment: INS-1E survival protection against cytokine death – cell-based, luminescence, retest, dose response (AID 449756); format: functional; details: Rattus norvegicus;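 further: cell death triggered by IL-1 beta plus TNF-alpha plus IFN-gamma mixture; protective hits raise ATP signal compared with cytokine alone wells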
[2] = biological target: SWI/SNF-related matrix-associated actin-dependent regulator of chromatin subfamily A member 2 (Homo sapiens, UniProt P51531); experiment: Luminescence-based cell-based high throughput dose response assay to identify activators of the function of SWI/SNF related, matrix associated, actin dependent regulator of chromatin, subfamily a, member 2 (SMARCA2, BRM).; format: functional
SWI/SNF-related matrix-associated actin-dependent regulator of chromatin subfamily A member 2, sequence (P51531 whole entry): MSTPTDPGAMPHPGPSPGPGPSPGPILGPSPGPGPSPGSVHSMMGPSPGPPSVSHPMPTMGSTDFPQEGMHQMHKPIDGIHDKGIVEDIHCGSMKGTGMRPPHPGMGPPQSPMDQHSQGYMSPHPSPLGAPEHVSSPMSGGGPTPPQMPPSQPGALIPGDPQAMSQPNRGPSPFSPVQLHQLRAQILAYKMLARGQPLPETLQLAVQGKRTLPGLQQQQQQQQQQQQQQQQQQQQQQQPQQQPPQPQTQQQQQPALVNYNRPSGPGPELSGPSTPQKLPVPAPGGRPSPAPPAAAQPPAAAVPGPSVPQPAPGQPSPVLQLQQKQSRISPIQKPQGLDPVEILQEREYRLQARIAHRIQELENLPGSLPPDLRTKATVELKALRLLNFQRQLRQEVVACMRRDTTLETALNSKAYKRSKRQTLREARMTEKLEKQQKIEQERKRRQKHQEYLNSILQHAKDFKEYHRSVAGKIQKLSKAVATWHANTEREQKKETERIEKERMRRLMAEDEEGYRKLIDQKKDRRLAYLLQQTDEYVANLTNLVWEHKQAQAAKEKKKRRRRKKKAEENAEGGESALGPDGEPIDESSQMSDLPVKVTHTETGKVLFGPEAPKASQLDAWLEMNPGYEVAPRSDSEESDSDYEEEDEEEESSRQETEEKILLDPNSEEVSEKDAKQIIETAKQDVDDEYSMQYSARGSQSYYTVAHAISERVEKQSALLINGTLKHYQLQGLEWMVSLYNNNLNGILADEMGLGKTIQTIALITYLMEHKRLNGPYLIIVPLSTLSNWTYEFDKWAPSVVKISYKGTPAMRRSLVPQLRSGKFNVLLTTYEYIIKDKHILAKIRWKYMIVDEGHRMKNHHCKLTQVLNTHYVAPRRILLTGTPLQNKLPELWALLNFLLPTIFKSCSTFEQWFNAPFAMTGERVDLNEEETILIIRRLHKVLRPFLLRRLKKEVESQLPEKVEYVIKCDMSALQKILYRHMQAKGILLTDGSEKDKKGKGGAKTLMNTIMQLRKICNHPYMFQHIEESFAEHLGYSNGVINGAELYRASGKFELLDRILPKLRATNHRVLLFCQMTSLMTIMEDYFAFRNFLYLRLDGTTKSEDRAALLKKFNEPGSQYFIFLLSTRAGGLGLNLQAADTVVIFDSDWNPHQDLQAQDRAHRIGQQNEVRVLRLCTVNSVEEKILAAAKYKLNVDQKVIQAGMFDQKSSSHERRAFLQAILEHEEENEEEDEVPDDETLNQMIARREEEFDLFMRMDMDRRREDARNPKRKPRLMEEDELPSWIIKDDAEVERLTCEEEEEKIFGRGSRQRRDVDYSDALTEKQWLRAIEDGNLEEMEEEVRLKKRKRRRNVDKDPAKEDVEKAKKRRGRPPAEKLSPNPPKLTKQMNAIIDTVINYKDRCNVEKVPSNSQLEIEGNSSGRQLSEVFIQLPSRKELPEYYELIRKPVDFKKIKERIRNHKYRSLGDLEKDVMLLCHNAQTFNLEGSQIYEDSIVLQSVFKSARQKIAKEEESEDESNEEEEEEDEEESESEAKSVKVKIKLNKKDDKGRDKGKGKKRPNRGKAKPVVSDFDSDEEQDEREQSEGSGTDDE

[3] = Counterscreen for activators of the function of SWI/SNF related, matrix associated, actin dependent regulator of chromatin, subfamily a, member 2 (SMARCA2, BRM): Luminescence-based cell-based high throughput dose response assay to identify non-selective compounds using the VP16 reporter assay.; format: functional
[4] = biological target: T1, DNA repair protein RAD52 homolog (Homo sapiens, UniProt P43351); format: functional, biochemical
T1 sequence (P43351 whole entry): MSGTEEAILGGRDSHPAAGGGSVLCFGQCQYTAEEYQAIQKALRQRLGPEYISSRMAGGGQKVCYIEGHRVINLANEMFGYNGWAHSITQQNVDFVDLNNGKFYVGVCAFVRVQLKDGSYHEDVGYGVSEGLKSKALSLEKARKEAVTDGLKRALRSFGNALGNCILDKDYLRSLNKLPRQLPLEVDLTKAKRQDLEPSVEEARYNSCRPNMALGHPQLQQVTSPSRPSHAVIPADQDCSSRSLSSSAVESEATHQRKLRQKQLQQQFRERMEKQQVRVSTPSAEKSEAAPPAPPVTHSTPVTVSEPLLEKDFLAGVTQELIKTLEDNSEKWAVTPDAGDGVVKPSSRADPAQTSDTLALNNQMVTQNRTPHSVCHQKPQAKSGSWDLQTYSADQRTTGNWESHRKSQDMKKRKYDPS

[5] = A549 cell cytotoxicity, dose response, cytotoxicity control, plate reader, cherry-pick, antagonist series (AID 743412); format: functional, cell-based
[6] = toxicity toward HepG2 liver cells – cell-based, plate reader, cherry-pick, antagonist series, cytotoxicity control, dose response (AID 743416); format: functional
[7] = blockers of bursicon-stimulated LGR2 cAMP reporter – cell-based, HEK293, CRE-luciferase reporter, cherry pick, set 2, dose response (AID 743343); format: functional;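 further: transfected cells were stimulated with diluted bursicon conditioned medium after compound addition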
[8] = blockade of melanocortin 4 receptor signaling – cell-based, plate reader, cherry pick, counter-screen for LGR2 antagonist project, dose response (AID 743444); format: functional;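 further: transfected HEK 293 cells stimulated with alpha-MSH peptide; potency of inhibitors of the alpha-MSH evoked signal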
[9] = viability loss in HEK293 cells – cell-based, plate reader, cherry-picked samples, cytotoxicity control, dose response (AID 743446); format: functional
[10] = CellTiter-Glo luminescence survival assay, SW480 colon tumor line, concentration-response curve, half-maximal inhibitory concentration (AID 1117338); format: functional
[11] = RKO cell viability reduction, dose response, CellTiter-Glo luminescence (AID 1117322); format: functional
[12] = cytotoxicity toward HCT116 cells – cell-based, CellTiter-Glo luminescence, IC50, dose response (AID 1117332); format: functional; details: HCT-116
[13] = SNU-C1 cell viability reduction, dose response, CellTiter-Glo luminescence (AID 1117323); format: functional, cell-based
[14] = cytotoxicity toward Colo320 cells – cell-based, CellTiter-Glo luminescence, IC50, dose response (AID 1117334); format: functional; details: COLO 320
[15] = cytotoxicity toward HT-29 cells – cell-based, CellTiter-Glo luminescence, IC50, dose response (AID 1117330); format: functional
[16] = HCT116 cell viability decrease, GSK3B pretreatment – CellTiter-Glo, IC50, dose response (AID 1117339); format: functional; details: HCT-116
HeLa = experiment: viability loss in HeLa cells – cell-based, ATP luminescence, cherry-pick samples, cytotoxicity control, dose response (AID 687004); format: functional; details: Homo sapiens
[17] = Luminescence Cell-Based Dose Retest to Confirm Inhibitors of Cancer Stem Cells. [Related pubchem assays (depositor defined):AID2717, AID2721]; format: functional; details: Homo sapiens
[18] = biological target: Disintegrin and metalloproteinase domain-containing protein 17 (Homo sapiens, UniProt P78536); experiment: exosite inhibitors of ADAM17, dose response, biochemical (AID 743260)
Disintegrin and metalloproteinase domain-containing protein 17, sequence (P78536 whole entry, the tested form may be a part): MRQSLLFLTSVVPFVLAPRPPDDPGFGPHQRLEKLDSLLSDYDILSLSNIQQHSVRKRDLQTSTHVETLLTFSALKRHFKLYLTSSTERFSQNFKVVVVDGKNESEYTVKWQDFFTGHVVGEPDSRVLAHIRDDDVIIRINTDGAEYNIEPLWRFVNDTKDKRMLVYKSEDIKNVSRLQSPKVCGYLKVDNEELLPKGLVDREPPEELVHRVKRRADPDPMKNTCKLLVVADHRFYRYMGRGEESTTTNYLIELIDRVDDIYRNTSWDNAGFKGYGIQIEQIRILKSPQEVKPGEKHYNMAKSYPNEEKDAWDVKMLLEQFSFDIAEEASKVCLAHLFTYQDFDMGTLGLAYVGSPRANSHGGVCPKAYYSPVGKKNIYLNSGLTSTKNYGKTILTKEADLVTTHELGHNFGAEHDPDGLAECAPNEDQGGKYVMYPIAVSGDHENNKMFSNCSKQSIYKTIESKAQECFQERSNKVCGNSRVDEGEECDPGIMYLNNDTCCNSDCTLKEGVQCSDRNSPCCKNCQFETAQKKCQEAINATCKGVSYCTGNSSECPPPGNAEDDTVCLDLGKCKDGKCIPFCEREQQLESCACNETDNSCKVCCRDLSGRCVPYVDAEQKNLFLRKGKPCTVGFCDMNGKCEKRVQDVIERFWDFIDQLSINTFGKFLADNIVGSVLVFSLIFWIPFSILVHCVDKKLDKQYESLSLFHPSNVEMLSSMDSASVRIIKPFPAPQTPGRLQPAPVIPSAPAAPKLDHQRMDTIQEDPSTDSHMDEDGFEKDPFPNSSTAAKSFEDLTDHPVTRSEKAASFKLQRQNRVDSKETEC

[19] = inhibition of ADAM10 peptide cleavage – biochemical, FRET peptide substrate, recombinant human ADAM10, selectivity assay for ADAM17 exosite inhibitor project, dose response (AID 743259);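 further: ADAM10 enzyme cleaving a FRET peptide substrate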
Paired box protein Pax-8 = Paired box protein Pax-8 (Homo sapiens, UniProt Q06710); experiment: PAX8 transcriptional activity inhibition in RMG-I – RMG-I cells, luciferase, cherry-pick, dose response (AID 687027); format: functional, cell-based;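 further: luciferase reporter driven by Pax8 target thyroperoxidase promoter measured by SteadyGlo luminescence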
Paired box protein Pax-8, sequence (Q06710 whole entry): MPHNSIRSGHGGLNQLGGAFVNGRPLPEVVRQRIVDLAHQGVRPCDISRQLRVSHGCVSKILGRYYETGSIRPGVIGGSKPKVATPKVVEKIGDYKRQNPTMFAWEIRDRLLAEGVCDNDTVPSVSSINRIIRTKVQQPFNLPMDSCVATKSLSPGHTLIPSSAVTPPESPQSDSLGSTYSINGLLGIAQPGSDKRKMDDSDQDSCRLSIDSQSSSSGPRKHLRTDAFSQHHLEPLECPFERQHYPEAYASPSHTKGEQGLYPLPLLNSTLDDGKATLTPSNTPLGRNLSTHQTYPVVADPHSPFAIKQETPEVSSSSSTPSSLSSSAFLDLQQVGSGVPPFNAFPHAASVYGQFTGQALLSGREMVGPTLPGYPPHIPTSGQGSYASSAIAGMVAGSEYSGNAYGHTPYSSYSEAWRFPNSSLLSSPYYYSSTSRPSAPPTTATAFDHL

[20] = reduced cellular PGC1a acetyl-lysine signal – cell-based, cherry-picked samples, dose response (AID 720514); format: functional;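 further: potency may reflect raised or lowered acetylation signal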
[21] = OVCAR8 cell viability loss – plate reader, dry powder samples, PAX8 project, dose response (AID 743197); format: functional, cell-based; details: OVCAR-8
[22] = tested on: Streptococcus sp. 'group A'; experiment: Streptococcus pyogenes SK(-)GAS viability under kanamycin – luminescence, BacTiterGlo, confirmation, counter-screen for streptokinase expression inhibitor project, dose response (AID 1900); format: functional, organism-based
Streptokinase A = biological target: T2, Streptokinase A (Streptococcus pyogenes serotype M1, UniProt P10520); experiment: viability-normalized secreted streptokinase activity reduction – plasminogen activation absorbance, OD405, dose response (AID 1914); format: functional, Streptococcus pyogenes M1 GAS;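 further: secreted streptokinase activity via plasminogen activation per viability signal from cell pellet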
T2 sequence (P10520 whole entry): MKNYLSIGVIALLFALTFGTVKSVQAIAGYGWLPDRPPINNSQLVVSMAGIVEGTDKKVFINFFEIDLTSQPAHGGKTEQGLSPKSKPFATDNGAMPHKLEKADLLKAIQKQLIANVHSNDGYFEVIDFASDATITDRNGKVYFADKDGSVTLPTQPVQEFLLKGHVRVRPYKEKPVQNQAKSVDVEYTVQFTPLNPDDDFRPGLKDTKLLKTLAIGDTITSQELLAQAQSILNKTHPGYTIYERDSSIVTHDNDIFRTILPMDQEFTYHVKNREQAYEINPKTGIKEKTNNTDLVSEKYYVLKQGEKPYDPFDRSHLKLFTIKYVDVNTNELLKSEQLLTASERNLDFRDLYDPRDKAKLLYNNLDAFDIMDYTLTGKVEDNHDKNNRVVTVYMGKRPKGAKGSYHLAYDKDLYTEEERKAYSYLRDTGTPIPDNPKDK

Streptococcus = experiment: GAS UMAA2166 growth inhibition – luminescence, BacTiterGlo, counter-screen for streptokinase expression inhibitor project, dose response (AID 1915); format: functional, organism-based;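 further: potency for reduction of bacterial viability or growth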
[23] = viability loss in Vero cells – cytotoxicity control for Vif-APOBEC3G degradation inhibitor project, dose response (AID 1117358); format: functional; details: Vero
[24] = biological target: Photoreceptor-specific nuclear receptor (Homo sapiens, UniProt Q9Y5X4); format: functional, cell-based;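 further: CHO-S cells with Gal4-NCOR and VP16-NR2E3 two-hybrid luciferase reporter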
Photoreceptor-specific nuclear receptor, sequence (Q9Y5X4 whole entry, the tested form may be a part): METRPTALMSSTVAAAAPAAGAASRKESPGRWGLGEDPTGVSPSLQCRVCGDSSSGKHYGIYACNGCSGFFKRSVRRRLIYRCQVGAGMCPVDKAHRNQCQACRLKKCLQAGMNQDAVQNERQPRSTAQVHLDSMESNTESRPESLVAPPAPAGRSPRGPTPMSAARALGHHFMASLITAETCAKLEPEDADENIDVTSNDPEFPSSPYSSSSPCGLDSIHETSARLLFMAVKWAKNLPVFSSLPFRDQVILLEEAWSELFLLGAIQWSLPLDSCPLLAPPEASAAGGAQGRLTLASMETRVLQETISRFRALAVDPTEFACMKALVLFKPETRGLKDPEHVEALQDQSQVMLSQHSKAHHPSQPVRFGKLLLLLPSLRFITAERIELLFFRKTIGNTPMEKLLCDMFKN

[25] = rise of 2N DNA cells, HeLa – IC50, dose response (AID 1117349); format: functional, cell-based
[26] = glucagon-like peptide-1 release potency in STC-1, concentration-response, half-maximal inhibitory concentration in the STC-1 line (AID 1117345); format: functional, cell-based
[27] = rise of 4N DNA cells, HeLa – IC50, dose response (AID 1117351); format: functional, cell-based
[28] = Reduced DLD-1 viability, concentration-response, CellTiter-Glo luminescence (AID 1117352); format: functional
[29] = Potency on glucagon-like peptide 1 release, dose-response in NCI-H716 cell line, half maximal inhibitory concentration (AID 1117344); format: functional, cell-based
[30] = growth inhibition of yeast DHODH-expressing 3D7 parasites – SYBR Green, dry powder samples, dose response (AID 1159570); format: functional, cell-based;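 further: parasite growth measured after 72 hours of compound exposure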
[31] = P. falciparum Dd2 growth inhibitors, dose response, SYBR Green, cherry-picked samples (AID 1159567); format: functional, cell-based
[32] = Dd2 malaria parasite growth inhibition potency – SYBR Green, dry powder samples, dose response (AID 1159566); format: functional, cell-based;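 further: potency for growth inhibition with lower SYBR green DNA signal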
[33] = growth inhibition of PfATP4-mutant resistant parasites – NITD609-resistant line, SYBR Green, dry powder, dose response (AID 1159571); format: functional, cell-based;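 further: parasites synchronized at ring stage by sorbitol before testing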
[34] = viability inhibitors of stage V gametocytes – luminescence, dose response (AID 1117278); format: functional, cell-based;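 further: gametocytes exposed to compound for 24 hours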
[35] = viability loss in human Jurkat cells – cell-based, luminescence, cytotoxicity control for P. falciparum gametocyte viability project, dose response (AID 1117277); format: functional;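 further: potency reflects loss of cellular ATP meaning fewer viable cells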
[36] = biological target: Oxysterols receptor LXR-beta (Homo sapiens, UniProt P55055); format: functional, cell-based;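 further: Cell-based luminescence dose-response assay of agonist activity at LXR, run as a confirmatory counterscreen to a daf-12 agonist screen; HEK293 cells with Gal4-LXR fusion and GAL4-driven luciferase reporter; agonist potency from rising luciferase signal of a Gal4-LXR reporter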
Oxysterols receptor LXR-beta, sequence (P55055 whole entry, the tested form may be a part): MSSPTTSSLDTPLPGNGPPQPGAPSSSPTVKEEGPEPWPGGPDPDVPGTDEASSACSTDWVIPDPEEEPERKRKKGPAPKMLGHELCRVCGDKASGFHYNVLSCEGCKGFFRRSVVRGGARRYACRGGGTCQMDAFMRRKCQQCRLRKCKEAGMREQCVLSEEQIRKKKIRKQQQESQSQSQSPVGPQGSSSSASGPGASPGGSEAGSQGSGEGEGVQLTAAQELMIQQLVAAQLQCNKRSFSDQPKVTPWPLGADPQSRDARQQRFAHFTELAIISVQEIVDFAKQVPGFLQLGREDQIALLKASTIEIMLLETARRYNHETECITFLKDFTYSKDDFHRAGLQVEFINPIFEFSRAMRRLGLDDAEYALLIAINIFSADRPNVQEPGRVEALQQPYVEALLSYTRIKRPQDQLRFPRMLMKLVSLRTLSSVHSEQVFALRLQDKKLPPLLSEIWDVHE

Compound: COCC(=O)Nc1ccc2c(c1)C(=O)N(C)[C@@H]1CC[C@@H](CC(=O)OC)O[C@@H]1CO2
- AC50 [1]: < 0.195 µM (active)

Compound: c1ccc2c(NCCCN3CCOCC3)c3ccccc3nc2c1
- AC50 (INS1): 2.33 µM (active)
- EC50 [2]: > 3.38 µM (active)
- EC50 [3]: > 91.2 µM (inactive)
- AC50 [4]: 1.06 µM (active)
- AC50 [5]: 3.28 µM (active)
- AC50 [6]: 3.54 µM (active)
- AC50 [7]: 21 µM (active)
- AC50 [8]: 31.3 µM (active)
- AC50 [9]: 3.16 µM (active)

Compound: O=C(CN1CCCCC1)Nc1c2c(nc3ccccc13)N(c1ccccc1)CC2
- EC50 [2]: > 91.2 µM (inactive)
- EC50 [3]: > 91.2 µM (inactive)

Compound: [H]/C=C\c1c(C)c2cc3nc(cc4[nH]c(cc5nc(cc1[nH]2)C(C)=C5CCC(=O)O)c(CCC(=O)OC)c4C)[C@@]1(C)C3=CC=C(C(=O)OC)[C@@H]1C(=O)OC
- IC50 [10]: > 6.67 µM (inactive)
- IC50 [11]: 3.53 µM (active)
- IC50 [12]: 5.65 µM (inactive)
- IC50 [13]: 5.85 µM (inactive)
- IC50 [14]: 9.62 µM (inactive)
- IC50 [15]: 3.94 µM (active)
- IC50 [16]: 4.26 µM (active)

Compound: CC(C)CC#Cc1ccc2c(c1)O[C@@H](CN(C)C(=O)C1CCC1)[C@@H](C)CN([C@H](C)CO)S2(=O)=O
- AC50 (HeLa): > 52 µM (inactive)

Compound: O=S(=O)(c1ccccc1)N(CC(O)Cn1c2ccccc2c2ccccc21)c1ccccc1 (stereo unspecified)
- AC50 [17]: 3.66 µM (active)
- IC50 [18]: > 69.5 µM (inactive)
- IC50 [19]: > 69.5 µM (inactive)

Compound: C[C@@H]1CCCCO[C@H](CN(C)Cc2ccc(Cl)c(Cl)c2)[C@H](C)CN([C@@H](C)CO)C(=O)c2cc(NC(=O)Nc3ccc(F)cc3)ccc2O1
- AC50 (Paired box protein Pax-8): 11.3 µM (active)
- AC50 [20]: 14.3 µM (active)
- AC50 [21]: 65.1 µM (active)

Compound: CCOC(=O)C1=CN(Cc2cccc(F)c2)S(=O)(=O)NC1c1ccc2ccccc2c1 (stereo unspecified)
- IC50 [18]: > 69.5 µM (inactive)
- IC50 [19]: > 7.73 µM (active)

Compound: O=c1c2c(nc(NCCO)n1CC1CCCCC1)-c1ccccc1CC21CCCC1
- EC50 [22]: 2.67 µM (active)
- EC50 (Streptokinase A): 3.48 µM (active)
- EC50 (Streptococcus): 19.3 µM (inconclusive)
- CC50 [23]: > 40 µM (active)

Compound: CCC(C)(C)C(=O)O[C@H]1C[C@@H](C)C=C2C=C[C@H](C)[C@H](CC[C@@H]3C[C@@H](O)CC(=O)O3)[C@H]21 [SIMVASTATIN]
- IC50 [24]: 1.16 µM (active)
- IC50 [25]: > 10 µM (inactive)
- IC50 [11]: > 20 µM (inactive)
- IC50 [12]: > 20 µM (inactive)
- IC50 [13]: > 20 µM (inactive)
- IC50 [26]: 3.29 µM (active)
- IC50 [14]: 4.94 µM (active)
- IC50 [27]: > 10 µM (inactive)
- IC50 [15]: > 20 µM (inactive)
- IC50 [28]: > 20 µM (inactive)
- IC50 [16]: 4.73 µM (active)
- IC50 [29]: 21.5 µM (inactive)

Compound: C[C@H](CO)N1C[C@H](C)[C@@H](CN(C)C(=O)Nc2ccc(-c3ccccc3)cc2)OCc2ccccc2-c2c(n(C)c3ccccc23)C1=O
- AC50 [30]: 0.684 µM (active)
- AC50 [31]: 1.41 µM (active)
- AC50 [32]: 0.544 µM (active)
- AC50 [33]: 0.577 µM (active)

Compound: CC(C)NCC(O)COc1ccc(CCOCC2CC2)cc1 (stereo unspecified) [BETAXOLOL]
- IC50 [10]: > 20 µM (inactive)
- IC50 [11]: > 20 µM (inactive)
- IC50 [12]: > 20 µM (inactive)
- IC50 [13]: > 20 µM (inactive)
- IC50 [14]: 6.17 µM (inactive)
- IC50 [15]: > 20 µM (inactive)
- IC50 [28]: > 20 µM (inactive)

Compound: O=c1c2ccccc2ncn1CCCCOc1ccc(Br)cc1
- IC50 [34]: > 109 µM (inactive)
- IC50 [35]: > 83.3 µM (inactive)

Compound: O=C(Nc1cccc(C(=O)N2CCOCC2)c1)c1ccccc1
- IC50 [34]: > 109 µM (inactive)
- IC50 [35]: > 83.3 µM (inactive)

Compound: Cc1nn(-c2ccc(Cl)cc2)c(=O)c2ccccc12
- EC50 [36]: > 67.5 µM (inactive)
- EC50 (cells): > 67.5 µM (inactive)
